Test results published in publication PMC8330742, “New benzothieno[2,3-c]pyridines as non-steroidal CYP17 inhibitors: design, synthesis, anticancer screening, apoptosis induction, and in silico ADME profile studies” (Journal of Enzyme Inhibition and Medicinal Chemistry, 2021).

What was measured:
RXF 393 = experiment: NCI-60 SRB screen; assay type: cell-based, human; settings: Homo sapiens; RXF 393; single dose 10^−5 M; read-out: Growth inhibition (%)
A498 = experiment: NCI-60 SRB screen; assay type: cell-based, human; settings: Homo sapiens; A498; single dose 10^−5 M; read-out: Growth inhibition (%)
BT-549 = experiment: NCI-60 SRB screen; assay type: cell-based, human; settings: Homo sapiens; BT-549; single dose 10^−5 M; read-out: Growth inhibition (%)
MDA-MB-468 = experiment: NCI-60 SRB screen; assay type: cell-based, human; settings: Homo sapiens; MDA-MB-468; single dose 10^−5 M; read-out: Growth inhibition (%)
MCF7 = experiment: NCI-60 SRB screen; assay type: cell-based, human; settings: Homo sapiens, MCF-7, single dose 10^−5 M, read-out: Growth inhibition (%)
DU-145 = experiment: NCI-60 SRB screen; assay type: cell-based, human; settings: Homo sapiens; DU-145; single dose 10^−5 M; read-out: Growth inhibition (%)
[1] = system: renal cancer cell line (UO-31); experiment: MTT cytotoxicity assay; assay type: cell-based, human
Description: (§1) The MTT method for monitoring in vitro cytotoxicity was used with multiwell plates. Three human cell lines, namely prostate cancer cell line (PC-3), renal cancer cell line (UO-31), and breast cancer cell line (MCF-7) were obtained from the American Type Culture Collection ATCC, Manassas, VA, USA). The cells were trypsinized and seeded in 96 well plates with a density of 1.2 − 1.8 × 10,000 cells/well for 24 h at 37 °C. After treating the cells with five concentrations of compound 5c (0.01, 0.1, 1, 10, 100 µM), an MTT solution (Sigma Co., St. Louis, MO, USA) (5 mg/mL in phosphate buffer solution) was applied to each well and […]. The plates were cultivated in 5% CO2 for 4 h at 37 °C. Successively, the remaining formazan crystals were dissolved in 100 µl of DMSO, and the absorbance was determined with the ROBONIK P2000 spectrophotometer at a wavelength of 570 nm. The obtained values were analysed using Gen5 software (BioTek, UK). The proliferation percentage in each treated cell line was standardised based on their control wells. Both tests have been conducted in triplicate. The IC50 values were calculated using sigmoidal dose-response curve fitting models. […] Each test included a blank containing a complete medium without cells.

[2] = system: prostate cancer cell line (PC-3); experiment: MTT cytotoxicity assay; assay type: cell-based, human
Description: as §1

[3] = system: breast cancer cell line (MCF-7); experiment: MTT cytotoxicity assay; assay type: cell-based, human
Description: as §1

T-47D = experiment: NCI-60 SRB screen; assay type: cell-based, human; settings: Homo sapiens, T47D, single dose 10^−5 M, read-out: Growth inhibition (%)
MDA-MB-231/ATCC = experiment: NCI-60 SRB screen; assay type: cell-based, human; settings: Homo sapiens, MDA-MB-231; MDAMB231/ATCC; single dose 10^−5 M; read-out: Growth inhibition (%)
OVCAR-5 = experiment: NCI-60 SRB screen; assay type: cell-based, human; settings: Homo sapiens; OVCAR-5; single dose 10^−5 M; read-out: Growth inhibition (%)
PC-3 = experiment: NCI-60 SRB screen; assay type: cell-based, human; settings: Homo sapiens; PC-3; single dose 10^−5 M; read-out: Growth inhibition (%)

COc1ccc(C2NC(=O)C(C#N)c3c2sc2c(F)cccc32)c(OC)c1 (centres unmarked) [Compound 5a, 1-(2,4-Dimethoxyphenyl)-4-cyano-8-fluoro-1,2-dihydro[1]benzothieno [2,3-c]pyridin-3(4H)-one]
inhibition at 10 µM (RXF 393): 90.3% | inhibition at 10 µM (A498): 74.8% | inhibition at 10 µM (BT-549): 78.6% | inhibition at 10 µM (MDA-MB-468): 75.7% | inhibition at 10 µM (MCF7): 75.5% | inhibition at 10 µM (DU-145): 9.51% | potency compared to staurosporine [1]: weak activity | potency compared to staurosporine [2]: moderate activity | potency compared to staurosporine [3]: moderate activity | inhibition at 10 µM (T-47D): 38.3% | melting point: 100 to 102 °C | inhibition at 10 µM (MDA-MB-231/ATCC): 27.3% | inhibition at 10 µM (OVCAR-5): 1.24% | inhibition at 10 µM (PC-3): 43.2%
